Experimental data: US20020022619A1, “Tricyclic fused pyridine and pyrimidine derivatives as CRF antagonists” (priority 2000, published 2002)

What was measured:
[1] = tested on: “anxiogenic” effects of CRF; conditions: cited from earlier work; for effect on the “anxiogenic” effects / actions of CRF in the conflict test: rats, given with CRF

melting point	Structure (SMILES)	behavioral activity alone in the operant conflict test ([1]; compound alone, without CRF)	effect on the “anxiogenic” effects / actions of CRF in the conflict test [1]
	CCOC(=O)c1ncn2c1CN(C)C(=O)c1cc(F)ccc1-2 [Ro15-1788]	without behavioral activity alone	reversed the effects of CRF in a dose-dependent manner
	CNC(=O)c1cc2c(cn1)[nH]c1ccccc12 [FG7142]		enhanced the actions of CRF
144.5 to 146 °C	CCN1CCCn2c(=O)n(-c3ccc(C(C)C)cc3Br)c3nc(C)nc1c32 [Example 1, 2-(2-Bromo-4-isopropyl-phenyl)-6-ethyl-4-methyl-6,7,8,9-tetrahydro-2H-2,3,5,6,9a-pentaaza-benzo[cd]azulen-1-one]		
